Reference: ChEMBL document CHEMBL4033793, “Potent and Selective Inhibitors of Human Sirtuin 5” (J Med Chem, 2018)
Residues, ends and D or L forms follow the SMILES beside them. *: point of attachment. X13 = O=C(O)[C@@H](CC(=O)*)SCc1cccc([N+](=O)[O-])c1; X27 = O=C(O)[C@H](CC(=O)*)SCc1ccc([N+](=O)[O-])cc1; X65 = O=C(O)[C@H](CC(=O)*)SCc1cccc([N+](=O)[O-])c1; X35 = O=C(O)[C@@H](CC(=O)*)SCc1ccc(C(F)(F)F)cc1; X32 = O=C(O)[C@H](CC(=O)*)SCc1ccc(C(F)(F)F)cc1; X17 = O=C(O)[C@@H](CC(=O)*)Sc1cc(Cl)cc(Cl)c1; X74 = O=C(O)[C@@H](CC(=O)*)SCc1ccc(Cl)cc1Cl; X11 = O=C(O)[C@H](CC(=O)*)SCc1cccc2ccccc12; X18 = O=C(O)[C@@H](CC(=O)*)Sc1c(Cl)cccc1Cl; X24 = O=C(O)[C@H](CC(=O)*)SCc1ccc(Cl)cc1Cl; X29 = COc1ccc(S[C@@H](CC(=O)*)C(=O)O)cc1OC; X55 = O=C(O)[C@@H](CC(=O)*)Sc1ccc(Cl)cc1Cl; X59 = O=C(O)[C@@H](CC(=O)*)SCc1ccc(Cl)cc1; X22 = COc1ccc(CS[C@H](CC(=O)*)C(=O)O)cc1; X57 = O=C(O)[C@@H](CC(=O)*)Sc1ccc(Cl)cc1; X6 = Cc1noc(C)c1CCS[C@@H](CC(=O)*)C(=O)O; X19 = O=C(O)[C@H](CC(=O)*)Sc1ccc(Cl)cc1; X47 = O=C(O)[C@@H](CC(=O)*)SCc1ccccc1Cl; X70 = O=C(O)[C@H](CC(=O)*)Sc1cccc(Cl)c1; X53 = O=C(O)[C@H](CC(=O)*)Sc1ccccc1Cl; X54 = O=C(O)[C@H](CC(=O)*)SCCc1ccccc1; X60 = O=C(O)[C@@H](CC(=O)*)SCc1ccccc1; X69 = O=C(O)[C@@H](CC(=O)*)Sc1ccccc1; X8 = O=C(O)[C@H](CC(=O)*)Sc1ccccc1; X12 = O=C(O)C(CC(=O)*)SCCc1cnccn1; X4 = O=C(O)C(CC(=O)*)Cc1ccccc1; Bz = O=C(c1ccccc1)*

Target: NAD-dependent protein deacylase sirtuin-5, mitochondrial (Homo sapiens, UniProt Q9NXA8)
Test: Inhibition of human recombinant N-terminal Strep2-tagged SIRT5 expressed in Escherichia coli BL21 (DE3) using Abz-GVLK(glutaryl)AY(NO2)GV-NH2 as substrate in presence of NAD+ by fluorescence assay

NAD-dependent protein deacylase sirtuin-5, mitochondrial, sequence (Q9NXA8 whole entry): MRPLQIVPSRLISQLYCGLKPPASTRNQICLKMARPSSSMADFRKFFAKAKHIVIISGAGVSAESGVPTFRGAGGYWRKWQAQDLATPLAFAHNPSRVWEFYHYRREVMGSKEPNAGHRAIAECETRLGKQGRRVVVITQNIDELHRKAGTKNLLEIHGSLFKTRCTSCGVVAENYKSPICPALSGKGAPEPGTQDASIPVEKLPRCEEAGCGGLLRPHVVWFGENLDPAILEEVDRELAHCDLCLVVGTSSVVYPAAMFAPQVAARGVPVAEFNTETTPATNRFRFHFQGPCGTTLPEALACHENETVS

SMILES | IC50 | Ki
CC(C)C[C@H](NC(=O)[C@@H](NC(=O)CNC(=O)c1ccccc1)C(C)C)C(=O)N[C@@H](CCCCNC(=O)C[C@@H](Sc1cc(Cl)cc(Cl)c1)C(=O)O)C(=O)N[C@@H](CCC(=O)O)C(=O)N[C@@H](Cc1ccc(O)cc1)C(=O)NCC(=O)N[C@H](C(N)=O)C(C)C (Bz-GVLK(X17)EYGV-NH2) | 647 nM | –
CC(C)C[C@H](NC(=O)[C@@H](NC(=O)CNC(=O)c1ccccc1)C(C)C)C(=O)N[C@@H](CCCCNC(=O)C[C@H](Sc1ccccc1)C(=O)O)C(=O)N[C@@H](CCC(=O)O)C(=O)N[C@@H](Cc1ccc(O)cc1)C(=O)NCC(=O)N[C@H](C(N)=O)C(C)C (Bz-GVLK(X8)EYGV-NH2) | 274 nM | 135 nM
CC(C)C[C@H](NC(=O)[C@@H](NC(=O)CNC(=O)c1ccccc1)C(C)C)C(=O)N[C@@H](CCCCNC(=O)C[C@@H](Sc1ccc(Cl)cc1Cl)C(=O)O)C(=O)N[C@@H](CCC(=O)O)C(=O)N[C@@H](Cc1ccc(O)cc1)C(=O)NCC(=O)N[C@H](C(N)=O)C(C)C (Bz-GVLK(X55)EYGV-NH2) | 2010 nM | –
CC(C)C[C@H](NC(=O)[C@@H](NC(=O)CNC(=O)c1ccccc1)C(C)C)C(=O)N[C@@H](CCCCNC(=O)C[C@H](Sc1ccccc1Cl)C(=O)O)C(=O)N[C@@H](CCC(=O)O)C(=O)N[C@@H](Cc1ccc(O)cc1)C(=O)NCC(=O)N[C@H](C(N)=O)C(C)C (Bz-GVLK(X53)EYGV-NH2) | 857 nM | –
CC(C)C[C@H](NC(=O)[C@@H](NC(=O)CNC(=O)c1ccccc1)C(C)C)C(=O)N[C@@H](CCCCNC(=O)C[C@@H](SCc1ccc(Cl)cc1)C(=O)O)C(=O)N[C@@H](CCC(=O)O)C(=O)N[C@@H](Cc1ccc(O)cc1)C(=O)NCC(=O)N[C@H](C(N)=O)C(C)C (Bz-GVLK(X59)EYGV-NH2) | 1020 nM | –
CC(C)C[C@H](NC(=O)[C@@H](NC(=O)CNC(=O)c1ccccc1)C(C)C)C(=O)N[C@@H](CCCCNC(=O)C[C@@H](SCc1ccccc1Cl)C(=O)O)C(=O)N[C@@H](CCC(=O)O)C(=O)N[C@@H](Cc1ccc(O)cc1)C(=O)NCC(=O)N[C@H](C(N)=O)C(C)C (Bz-GVLK(X47)EYGV-NH2) | 352 nM | –
CC(C)C[C@H](NC(=O)[C@@H](NC(=O)CNC(=O)c1ccccc1)C(C)C)C(=O)N[C@@H](CCCCNC(=O)C[C@H](SCc1ccc([N+](=O)[O-])cc1)C(=O)O)C(=O)N[C@@H](CCC(=O)O)C(=O)N[C@@H](Cc1ccc(O)cc1)C(=O)NCC(=O)N[C@H](C(N)=O)C(C)C (Bz-GVLK(X27)EYGV-NH2) | 3730 nM | –
CC(C)C[C@H](NC(=O)[C@@H](NC(=O)CNC(=O)c1ccccc1)C(C)C)C(=O)N[C@@H](CCCCNC(=O)C[C@H](Sc1cccc(Cl)c1)C(=O)O)C(=O)N[C@@H](CCC(=O)O)C(=O)N[C@@H](Cc1ccc(O)cc1)C(=O)NCC(=O)N[C@H](C(N)=O)C(C)C (Bz-GVLK(X70)EYGV-NH2) | 120 nM | –
CCCCNC(=O)C[C@H](Sc1ccc2ccccc2c1)C(=O)O | 154000 nM | –
CC(C)C[C@H](NC(=O)[C@@H](NC(=O)CNC(=O)c1ccccc1)C(C)C)C(=O)N[C@@H](CCCCNC(=O)C[C@H](SCc1ccc(Cl)cc1Cl)C(=O)O)C(=O)N[C@@H](CCC(=O)O)C(=O)N[C@@H](Cc1ccc(O)cc1)C(=O)NCC(=O)N[C@H](C(N)=O)C(C)C (Bz-GVLK(X24)EYGV-NH2) | 543 nM | –
CC(C)C[C@H](NC(=O)[C@@H](NC(=O)CNC(=O)c1ccccc1)C(C)C)C(=O)N[C@@H](CCCCNC(=O)C[C@@H](Sc1c(Cl)cccc1Cl)C(=O)O)C(=O)N[C@@H](CCC(=O)O)C(=O)N[C@@H](Cc1ccc(O)cc1)C(=O)NCC(=O)N[C@H](C(N)=O)C(C)C (Bz-GVLK(X18)EYGV-NH2) | 12500 nM | –
CC(C)C[C@H](NC(=O)[C@@H](NC(=O)CNC(=O)c1ccccc1)C(C)C)C(=O)N[C@@H](CCCCNC(=O)C[C@@H](SCc1ccc(C(F)(F)F)cc1)C(=O)O)C(=O)N[C@@H](CCC(=O)O)C(=O)N[C@@H](Cc1ccc(O)cc1)C(=O)NCC(=O)N[C@H](C(N)=O)C(C)C (Bz-GVLK(X35)EYGV-NH2) | 2200 nM | –
O=C(C[C@H](Sc1ccc2ccccc2c1)C(=O)O)Nc1ccccc1 | 157000 nM | –
CC(=O)N[C@@H](CC(C)C)C(=O)N[C@@H](CCCCNC(=O)CC(Sc1ccc2ccccc2c1)C(=O)O)C(=O)N[C@@H](C)C(N)=O (stereo not given in full) | 1080 nM | –
Cc1noc(C)c1CCS[C@@H](CC(=O)NCCCC[C@H](NC(=O)[C@H](CC(C)C)NC(=O)[C@@H](NC(=O)CNC(=O)c1ccccc1)C(C)C)C(=O)N[C@@H](CCC(=O)O)C(=O)N[C@@H](Cc1ccc(O)cc1)C(=O)NCC(=O)N[C@H](C(N)=O)C(C)C)C(=O)O (Bz-GVLK(X6)EYGV-NH2) | 8750 nM | –
CC(C)C[C@H](NC(=O)[C@@H](NC(=O)CNC(=O)c1ccccc1)C(C)C)C(=O)N[C@@H](CCCCNC(=O)C[C@@H](SCc1cccc([N+](=O)[O-])c1)C(=O)O)C(=O)N[C@@H](CCC(=O)O)C(=O)N[C@@H](Cc1ccc(O)cc1)C(=O)NCC(=O)N[C@H](C(N)=O)C(C)C (Bz-GVLK(X13)EYGV-NH2) | 2670 nM | –

SMILES | IC50 | Ki
CC(C)C[C@H](NC(=O)[C@@H](NC(=O)CNC(=O)c1ccccc1)C(C)C)C(=O)N[C@@H](CCCCNC(=O)C[C@@H](SCc1ccccc1)C(=O)O)C(=O)N[C@@H](CCC(=O)O)C(=O)N[C@@H](Cc1ccc(O)cc1)C(=O)NCC(=O)N[C@H](C(N)=O)C(C)C (Bz-GVLK(X60)EYGV-NH2) | 644 nM | –
O=C(C[C@H](Sc1ccc2ccccc2c1)C(=O)O)NCCCc1ccccc1 | 72600 nM | –
CC(C)C[C@H](NC(=O)[C@@H](NC(=O)CNC(=O)c1ccccc1)C(C)C)C(=O)N[C@@H](CCCCNC(=O)C[C@H](SCCc1ccccc1)C(=O)O)C(=O)N[C@@H](CCC(=O)O)C(=O)N[C@@H](Cc1ccc(O)cc1)C(=O)NCC(=O)N[C@H](C(N)=O)C(C)C (Bz-GVLK(X54)EYGV-NH2) | 2740 nM | –
CC(C)C[C@H](NC(=O)[C@@H](NC(=O)CNC(=O)c1ccccc1)C(C)C)C(=O)N[C@@H](CCCCNC(=O)C[C@H](SCc1cccc2ccccc12)C(=O)O)C(=O)N[C@@H](CCC(=O)O)C(=O)N[C@@H](Cc1ccc(O)cc1)C(=O)NCC(=O)N[C@H](C(N)=O)C(C)C (Bz-GVLK(X11)EYGV-NH2) | 15.4 nM | 7 nM
CC(C)C[C@H](NC(=O)[C@@H](NC(=O)CNC(=O)c1ccccc1)C(C)C)C(=O)N[C@@H](CCCCNC(=O)C[C@H](SCc1ccc(C(F)(F)F)cc1)C(=O)O)C(=O)N[C@@H](CCC(=O)O)C(=O)N[C@@H](Cc1ccc(O)cc1)C(=O)NCC(=O)N[C@H](C(N)=O)C(C)C (Bz-GVLK(X32)EYGV-NH2) | 803 nM | –
CC(C)C[C@H](NC(=O)[C@@H](NC(=O)CNC(=O)c1ccccc1)C(C)C)C(=O)N[C@@H](CCCCNC(=O)C[C@@H](SCc1ccc(Cl)cc1Cl)C(=O)O)C(=O)N[C@@H](CCC(=O)O)C(=O)N[C@@H](Cc1ccc(O)cc1)C(=O)NCC(=O)N[C@H](C(N)=O)C(C)C (Bz-GVLK(X74)EYGV-NH2) | 432 nM | –
CC(C)C[C@H](NC(=O)[C@@H](NC(=O)CNC(=O)c1ccccc1)C(C)C)C(=O)N[C@@H](CCCCNC(=O)CC(SCCc1cnccn1)C(=O)O)C(=O)N[C@@H](CCC(=O)O)C(=O)N[C@@H](Cc1ccc(O)cc1)C(=O)NCC(=O)N[C@H](C(N)=O)C(C)C (stereo not given in full) (Bz-GVLK(X12)EYGV-NH2) | 22800 nM | 3.5 to 11 nM
COc1ccc(S[C@@H](CC(=O)NCCCC[C@H](NC(=O)[C@H](CC(C)C)NC(=O)[C@@H](NC(=O)CNC(=O)c2ccccc2)C(C)C)C(=O)N[C@@H](CCC(=O)O)C(=O)N[C@@H](Cc2ccc(O)cc2)C(=O)NCC(=O)N[C@H](C(N)=O)C(C)C)C(=O)O)cc1OC (Bz-GVLK(X29)EYGV-NH2) | 326 nM | –
CC(=O)N[C@@H](CCCCNC(=O)C[C@H](Sc1ccc2ccccc2c1)C(=O)O)C(N)=O | 7400 nM | –
CC(C)C[C@H](NC(=O)[C@@H](NC(=O)CNC(=O)c1ccccc1)C(C)C)C(=O)N[C@@H](CCCCNC(=O)CC(Cc1ccccc1)C(=O)O)C(=O)N[C@@H](CCC(=O)O)C(=O)N[C@@H](Cc1ccc(O)cc1)C(=O)NCC(=O)N[C@H](C(N)=O)C(C)C (stereo not given in full) (Bz-GVLK(X4)EYGV-NH2) | 1120 nM | 263 nM
CC(C)C[C@H](NC(=O)[C@@H](NC(=O)CNC(=O)c1ccccc1)C(C)C)C(=O)N[C@@H](CCCCNC(=O)C[C@H](SCc1cccc([N+](=O)[O-])c1)C(=O)O)C(=O)N[C@@H](CCC(=O)O)C(=O)N[C@@H](Cc1ccc(O)cc1)C(=O)NCC(=O)N[C@H](C(N)=O)C(C)C (Bz-GVLK(X65)EYGV-NH2) | 2710 nM | –
CC(C)C[C@H](NC(=O)[C@@H](NC(=O)CNC(=O)c1ccccc1)C(C)C)C(=O)N[C@@H](CCCCNC(=O)C[C@@H](Sc1ccc(Cl)cc1)C(=O)O)C(=O)N[C@@H](CCC(=O)O)C(=O)N[C@@H](Cc1ccc(O)cc1)C(=O)NCC(=O)N[C@H](C(N)=O)C(C)C (Bz-GVLK(X57)EYGV-NH2) | 1610 nM | –
CC(C)C[C@H](NC(=O)[C@@H](NC(=O)CNC(=O)c1ccccc1)C(C)C)C(=O)N[C@@H](CCCCNC(=O)C[C@@H](Sc1ccccc1)C(=O)O)C(=O)N[C@@H](CCC(=O)O)C(=O)N[C@@H](Cc1ccc(O)cc1)C(=O)NCC(=O)N[C@H](C(N)=O)C(C)C (Bz-GVLK(X69)EYGV-NH2) | 1800 nM | –
CC(C)C[C@H](NC(=O)[C@@H](NC(=O)CNC(=O)c1ccccc1)C(C)C)C(=O)N[C@@H](CCCCNC(=O)C[C@H](Sc1ccc(Cl)cc1)C(=O)O)C(=O)N[C@@H](CCC(=O)O)C(=O)N[C@@H](Cc1ccc(O)cc1)C(=O)NCC(=O)N[C@H](C(N)=O)C(C)C (Bz-GVLK(X19)EYGV-NH2) | 102 nM | –
COc1ccc(CS[C@H](CC(=O)NCCCC[C@H](NC(=O)[C@H](CC(C)C)NC(=O)[C@@H](NC(=O)CNC(=O)c2ccccc2)C(C)C)C(=O)N[C@@H](CCC(=O)O)C(=O)N[C@@H](Cc2ccc(O)cc2)C(=O)NCC(=O)N[C@H](C(N)=O)C(C)C)C(=O)O)cc1 (Bz-GVLK(X22)EYGV-NH2) | 1110 nM | –
